Laboratory results taken from paper PMC11323271 (Journal of Chemical Information and Modeling, 2024).
In brackets after ≈: the same amount, converted by molar mass. Entries after “also recorded” stand apart in the source; their conditions may differ.

How the values were obtained:
M. tuberculosis H37Rv = conditions: cited from earlier work
M. tuberculosis = conditions: cited from earlier work
[1] = target: M. tuberculosis DNA gyrase holoenzyme (GyrB ATPase activity) (Mycobacterium tuberculosis, UniProt P9WG45); assay: biochemical; conditions: for IC50 / IC50 for inhibition of M. tuberculosis DNA gyrase ATPase activity: triplicate, at least 11 inhibitor concentrations; for IC50: read-out: IC50 for inhibition of M. tuberculosis DNA gyrase ATPase activity
M. tuberculosis H37Ra [2] = assay: microbe, parasite or virus in culture; type: cell-based, Mycobacterium tuberculosis; conditions: for MIC: Mycobacterium tuberculosis, H37RA, 168 h, read-out: MIC against M. tuberculosis H37Ra
Caco-2 cells = assay: In vitro cytotoxicity, MTT assay; type: cell-based
Experimental: Caco-2 cells (ATCC no. HTB-37) were used for cytotoxicity testing of selected compounds as described in our previous work.[32] Cell viability of tested compounds on Caco-2 cells was determined using 3-(4,5-dimethylthiazol-2-yl)-2,5-diphenyltetrazolium bromide (MTT) following a modified assay procedure.[52] Absorbance was measured at 590 nm using a microplate reader (Infinite M200 PRO, Tecan Group Ltd., Switzerland). The experiment was performed in triplicate and compound concentrations at which cells retained a viability of more than 80% were considered as nontoxic to cells.[53]
Figure S1. Hit compound cytotoxicity against Caco-2 cells. Cells were incubated with different concentrations of compounds (1 (A), 2 (B), 3 (C), 8 (D), 11 (E), 14 (F), G24 (G), and G26 (H)) for 24 h and viability measured by MTT assay. Data are presented as the mean ± SD (n = 6). The yellow bars represent the maximum concentrations at which compounds are non-cytotoxic towards Caco-2 cells.
(1 picture or pasted object on this page, not shown here)

M. tuberculosis H37Ra [3] = conditions: previous virtual screening work; cited from earlier work

Chain of M. tuberculosis DNA gyrase holoenzyme (GyrB ATPase activity) (P9WG45 whole entry, looked up): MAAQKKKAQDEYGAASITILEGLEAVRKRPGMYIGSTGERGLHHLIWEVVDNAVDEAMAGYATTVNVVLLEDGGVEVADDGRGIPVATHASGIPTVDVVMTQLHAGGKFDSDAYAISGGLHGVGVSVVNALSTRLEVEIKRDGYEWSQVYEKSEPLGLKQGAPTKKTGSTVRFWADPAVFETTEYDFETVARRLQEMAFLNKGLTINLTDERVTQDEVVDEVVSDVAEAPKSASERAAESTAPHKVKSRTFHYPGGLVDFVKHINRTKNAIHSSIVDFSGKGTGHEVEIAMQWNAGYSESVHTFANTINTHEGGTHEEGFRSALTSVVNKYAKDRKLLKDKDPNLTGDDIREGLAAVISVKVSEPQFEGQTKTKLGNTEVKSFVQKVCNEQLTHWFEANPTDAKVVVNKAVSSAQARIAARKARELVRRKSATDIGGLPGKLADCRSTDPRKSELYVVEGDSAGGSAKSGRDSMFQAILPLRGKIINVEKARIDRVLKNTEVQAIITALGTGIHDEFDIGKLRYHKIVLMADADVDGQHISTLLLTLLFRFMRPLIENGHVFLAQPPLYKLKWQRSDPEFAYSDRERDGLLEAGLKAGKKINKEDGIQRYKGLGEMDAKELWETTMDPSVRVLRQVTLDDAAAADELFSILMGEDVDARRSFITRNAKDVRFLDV

| SMILES | IC50 [1] | MIC (M. tuberculosis H37Ra [2]) | maximum non-cytotoxic concentration toward Caco-2 cells (Caco-2 cells; human, Caco-2, 24 h) | further results |
| --- | --- | --- | --- | --- |
| COc1ccc(CCNCC(O)Cn2c3ccccc3c3ccccc32)cc1OC (stereo not shown) [AF-399/41048884] | – | – | – | IC50 (M. tuberculosis H37Rv): 10.6 µM |
| OC(CN1CCN(c2ccccn2)CC1)Cn1c2ccccc2c2ccccc21 (stereo not shown) [AG-690/11353646] | – | – | – | IC50 (M. tuberculosis): 36.1 µM |
| OC(CNCCC1C=Nc2ccccc21)Cn1c2ccccc2c2ccccc21 (stereo not shown) [Compound 1] | 0.73 µM | 6.2 µg/mL (≈ 16.2 µM) | 25.0 µg/mL | – |
| OC(CNCCOc1ccccc1)Cn1c2ccccc2c2ccccc21 (stereo not shown) [Compound 2] | 1.34 µM | 6.2 µg/mL (≈ 17.2 µM) | 12.5 µg/mL | – |
| OC(CNCc1ccccc1)Cn1c2ccccc2c2ccccc21 (stereo not shown) [Compound 3] | 3.82 µM | 12.5 µg/mL (≈ 37.8 µM) | – | maximum non-cytotoxic concentration toward Caco-2 cells (Caco-2 cells; 24 h, MTT, viability of more than 80% considered nontoxic): 12.5 µg/mL |
| Cc1ccc(NCC(O)Cn2c3ccccc3c3ccccc32)cc1Cl (stereo not shown) [Compound 4] | – | > 100 µg/mL | – | – |
| O=C(NNCC(O)Cn1c2ccccc2c2ccccc21)c1ccccc1 (stereo not shown) [Compound 5] | – | > 100 µg/mL | – | – |
| CCc1ccc(NCC(O)Cn2c3ccccc3c3ccccc32)cc1 (stereo not shown) [Compound 6] | – | > 100 µg/mL | – | – |
| Cc1ccc(NCC(O)Cn2c3ccccc3c3ccccc32)cc1 (stereo not shown) [Compound 7] | – | > 100 µg/mL | – | – |
| CCn1c2ccccc2c2cc(CNCCNCC(C)O)ccc21 (stereo not shown) [Compound 8] | 0.26 µM | 25 µg/mL (≈ 76.8 µM) | 12.5 µg/mL | ATPase inhibition, fold more effective than carbazole derivative 1 [1]: approximately 3 fold; ATPase inhibition, fold more effective than carbazole derivative 2 [1]: ~5 fold; ATPase inhibition, fold more effective than carbazole derivative 3 [1]: ~15 fold; IC50 fold better than novobiocin [1]: 5 fold |
| OC(CN1CCOCC1)Cn1c(-c2ccccc2)c(-c2ccccc2)c2ccc3ccccc3c21 (stereo not shown) [Compound 9] | – | 12.5 µg/mL (≈ 27 µM) | – | IC50 for inhibition of M. tuberculosis DNA gyrase ATPase activity [1]: inactive; also recorded: absence of observable ATPase inhibition |
| OC(CNCc1ccco1)Cn1c(-c2ccccc2)c(-c2ccccc2)c2ccc3ccccc3c21 (stereo not shown) [Compound 10] | – | 3.1 µg/mL (≈ 6.56 µM) | – | IC50 for inhibition of M. tuberculosis DNA gyrase ATPase activity [1]: inactive; also recorded: absence of observable ATPase inhibition |
| OCCNCC(O)Cn1c(-c2ccccc2)c(-c2ccccc2)c2ccc3ccccc3c21 (stereo not shown) [Compound 11] | 0.56 µM | 3.1 µg/mL (≈ 7.1 µM) | 0.87 µg/mL | IC50 fold better than novobiocin [1]: 2 fold |
| Cc1cc(C)c2c(c1)c(-c1ccccc1)c(-c1ccccc1)n2CC(O)CN1CCOCC1 (stereo not shown) [Compound 12] | – | 12.5 µg/mL (≈ 28.4 µM) | – | IC50 for inhibition of M. tuberculosis DNA gyrase ATPase activity [1]: inactive; also recorded: absence of observable ATPase inhibition |
| Cc1ccc2c(c1)c(-c1ccccc1)c(-c1ccccc1)n2CC(O)CN1CCOCC1 (stereo not shown) [Compound 13] | – | 12.5 µg/mL (≈ 29.3 µM) | – | IC50 for inhibition of M. tuberculosis DNA gyrase ATPase activity [1]: inactive; also recorded: absence of observable ATPase inhibition |
| Cc1ccc2c(c1)c(-c1ccccc1)c(-c1ccccc1)n2CC(O)CNC(CO)(CO)CO (stereo not shown) [Compound 14] | 0.08 µM | 6.2 µg/mL (≈ 13.5 µM) | 12.5 µg/mL | IC50 fold better than novobiocin [1]: 16 fold |
| Cc1ccc2c(c1)c(-c1ccccc1)c(-c1ccccc1)n2CC(O)CN(CCO)CCO (stereo not shown) [G24, reference compound] | 2.69 µM | 12.5 µg/mL (≈ 28.1 µM) | 25 µg/mL | MIC against M. tuberculosis (previous work) (M. tuberculosis H37Ra [3]): 12.5 µg/mL (≈ 28.1 µM); maximum non-cytotoxic concentration, fold higher than for G26 (Caco-2 cells; human, 24 h): 15 fold |
| CO[C@@H]1[C@@H](OC(N)=O)[C@@H](O)[C@H](Oc2ccc3c(O)c(NC(=O)c4ccc(O)c(CC=C(C)C)c4)c(=O)oc3c2C)OC1(C)C [Novobiocin, reference compound] | – | > 100 µg/mL | – | MIC against M. tuberculosis (previous work) (M. tuberculosis H37Ra [3]): exceeding 100 μg/mL; MIC against M. tuberculosis H37Ra (M. tuberculosis H37Ra [2]): > 100 µg/mL |
